Our source for the IC50 and selectivity ratio values is ChEMBL document CHEMBL4627382, “Iheyamides A-C, Antitrypanosomal Linear Peptides Isolated from a Marine Dapis sp. Cyanobacterium” (J Nat Prod, 2020).

The test system of data set [1] is Trypanosoma brucei brucei. Nature of the data set: Antitrypanosomal activity against Trypanosoma brucei brucei 221 incubated for 69 hrs by AlamarBlue assay. The format is functional, organism-based. The conditions noted are these: Trypanosoma brucei, 221, 69 h.
Data set [2] concerns Trypanosoma brucei rhodesiense. Nature of the data set: Antitrypanosomal activity against Trypanosoma brucei rhodesiense IL-1501 incubated for 69 hrs by AlamarBlue assay. It counts as functional, organism-based. The conditions noted are these: IL-1501, 69 h.
In a further data set the test system is WI-38. Nature of the data set: Cytotoxicity against human WI38 cells incubated for 72 hrs by MTT assay. The format is cell-based. The note with it: WI-38, 72 h.
A short description of data set [3]: Selectivity ratio of IC50 for human WI38 cells to IC50 for Trypanosoma brucei brucei 221. The conditions noted are these: read-out: Ratio IC50. The format is toxicity.
The nature of data set [4]: Selectivity ratio of IC50 for human WI38 cells to IC50 for Trypanosoma brucei rhodesiense IL-1501. It counts as toxicity. The conditions noted are these: read-out: Ratio IC50.

As to `CC[C@@H](C)[C@H](C(=O)O)N(C)C(=O)[C@@H]1CCCN1C(=O)[C@H](C(C)C)N(C)C(=O)[C@@H](Cc1ccccc1)NC(=O)[C@H](Cc1ccccc1)N(C)C`, the half-maximal inhibitory concentration (IC50) (in data set [1]; in data set [2]; in the data set on WI-38) was > 20 µM in each case.
For the molecule `CC[C@@H](C)[C@H](C(=O)N1CCC[C@H]1C(=O)N1C(=O)C=C(OC)[C@@H]1C(C)C)N(C)C(=O)[C@@H]1CCCN1C(=O)[C@H](C(C)C)N(C)C(=O)[C@@H](Cc1ccccc1)NC(=O)[C@H](Cc1ccccc1)N(C)C`, the IC50 amounted to 1.5 µM in data set [1], 1.5 µM in data set [2] and 18 µM in the data set on WI-38. Moreover, the selectivity ratio in data set [3] and in data set [4] was > 10 each time.
For the molecule `CC[C@@H](C)[C@H](C(=O)N1CCC[C@H]1C(=O)O)N(C)C(=O)[C@@H]1CCCN1C(=O)[C@H](C(C)C)N(C)C(=O)[C@@H](Cc1ccccc1)NC(=O)[C@H](Cc1ccccc1)N(C)C`, the IC50 (in data set [1]; in data set [2]; in the data set with WI-38) was > 20 µM in each case.
